The text below walks through data of EP4624471A1, “PKMYT1 INHIBITOR, PREPARATION METHOD THEREFOR, AND PHARMACEUTICAL COMPOSITION AND USE THEREOF” (Shanghai Qilu Pharmaceutical Research and Development …, priority 2022, dated 2024).

Structures are written as SMILES.

Test [1] concerns HCC1569 cells. The test can be described thus: Cytostatic activity, CTG assay (HCC1569). Format: cell-based. The settings on record: 5 days. On the procedure:
Biological test example 2. Cytostatic activity of compounds of the present disclosure
CTG assay (HCC1569) was used to verify the biological activity of some of the example compounds of the present disclosure.
HCC1569 cells were purchased from ATCC (Cat. No.: CRL-2330) and cultured in a 37°C, 5% CO2 cell culture incubator. HCC1569 complete medium: RPMI-1640 liquid medium (Cat. No.: Gibico 11875-093), 20% FBS (Cat. No.: Gibico 10099-141), 1% Pen Strep (Cat. No.: Gibico 15070-063).
HCC1569 cells in a 75 cm^2 culture flask were digested with 2 mL of trypsin for 2-3 min, and then neutralized with 2 mL of 1640 complete medium. The mixture was centrifuged at 1200 rpm for 5 minutes. Cells were resuspended using 4 mL of 1640 complete medium. 500 µL of cell suspension was taken for cell counting using Vi-CELL-XR cell counter.
Using a Multidrop instrument, the HCC1569 cells were seeded in a 384-well plate at a density of 1000 cells per well (50 µL 1640 Growth Media) and administrated 24 hours later.
Using an ultra-micro pipette, the test compound (concentration: 3.33 mM, dissolved in DMSO) was diluted with 10 µM as the highest starting concentration, and then sequentially diluted in 10 gradients at a ratio of 1:3 (10000 nM, 3333 nM, 1111 nM, 370 nM, 123 nM, 41 nM, 13.7 nM, 4.6 nM, 1.5 nM, 0.5 nM) for administration treatment, with two duplicate wells for each concentration; 14 wells for positive and negative controls were set, with the positive control being the duplicate wells of 10 µM positive compound and the negative control being the duplicate wells of DMSO.
After the administration was completed, the cells were placed in a 37°C incubator for further culture for 5 days. After 5 days, 25 µL of CTG buffer was added to each well for CTG assay detection, and analyzed using a microplate reader. CTG readings were analyzed.
a = CTG value (highest concentration), b = CTG value (blank well), x = CTG value(test well).
IC50 was calculated using GraphPad PRISM 8.
Log10 (A compound concentration) was used for statistical calculation. (2) The data were input into GraphPad PRISM 8, and Analysis was selected. (3) Nonlinear regression (curve fit) was selected. (4) Log (inhibitor) vs. response-Variable slope was selected. (5) The calculation formula was selected, and the calculation was carried out according to the following formula: Y = Bottom + (Top-Bottom)/(1+10^((LogIC50-X)*HillSlope)), X: logarithm of dose or concentration, Y: response value, Top and Bottom: peak and bottom values. (6) The data were fitted to obtain IC50 values. (7) The fitting conditions were adjusted according to the specific data. Appropriate Constraint conditions were adjusted for Bottom, Top, and HillSlope. The curve that best fits the actual situation has been reached.

For test [2], the target named is T1, PKMYT1 enzyme (Homo sapiens, UniProt Q99640).
T1 construct: purchased Thermo Scientific A33387
T1 sequence (Q99640 1-499): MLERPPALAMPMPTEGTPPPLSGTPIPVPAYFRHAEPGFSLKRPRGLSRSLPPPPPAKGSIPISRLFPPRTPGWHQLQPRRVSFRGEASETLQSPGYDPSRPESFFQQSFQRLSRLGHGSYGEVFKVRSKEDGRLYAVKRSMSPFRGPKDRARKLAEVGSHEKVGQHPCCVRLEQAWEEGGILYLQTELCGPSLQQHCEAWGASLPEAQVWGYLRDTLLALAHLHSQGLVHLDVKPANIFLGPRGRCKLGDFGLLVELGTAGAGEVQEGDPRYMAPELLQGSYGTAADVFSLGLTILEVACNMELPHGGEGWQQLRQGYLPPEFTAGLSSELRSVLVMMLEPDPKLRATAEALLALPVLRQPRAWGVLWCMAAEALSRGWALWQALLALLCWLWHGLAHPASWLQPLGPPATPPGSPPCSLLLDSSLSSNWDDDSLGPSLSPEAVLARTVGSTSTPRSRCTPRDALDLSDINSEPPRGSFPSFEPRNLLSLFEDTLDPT
The experiment in a line: PKMYT1 enzyme inhibition activity, ADP-GLO method. Format: biochemical. The settings on record: PKMYT1 enzyme 10 nM, ATP 5 µM, 37°C 90 minutes; read-out: ADP-GLO IC50.
Method: Enzyme inhibition activity of compounds of the present disclosure
The enzyme activity of some of the example compounds was verified using the ADP-GLO method.
PKMYT1 enzyme protein was purchased from Thermo Scientific (Cat. No.: A33387), and the ADP-GLO kit was purchased from Promega (Cat. No.: V9103).
PKMYT1 enzyme activity reaction buffer: 70 mM HEPES, 3 mM MgCl2, 3 mM MnCl2, 50 µg mL-1PEG20000, 3 µM sodium orthovanadate, 1.2 mM DTT.
The reaction plate with the added compounds was centrifuged at 2500 rpm for 1 minute.
The prepared enzyme solution was added to the reaction plate, 5 µL per well, and the final concentration of enzyme was 10 nM. The reaction plate was centrifuged at 1000 rpm for 1 minute. The reaction plate was placed in an incubator at 37°C for 15 minutes.
The prepared ATP substrate solution was added to the reaction plate, 5 µL per well, and the final concentration of ATP was 5 µM. The reaction plate was centrifuged at 1000 rpm for 1 minute. After sealing the plate with aluminum foil, the plate was placed in an incubator and the reaction was carried out at 37°C for 90 minutes.
10 µL of ADP-glo™ reagent was added to stop the kinase reaction and consume unconsumed ATP, leaving only ADP and a very low ATP background. The reaction plate was centrifuged at 1000 rpm for 1 minute. After sealing the plate with aluminum foil, the reaction was carried out at room temperature for 60 minutes.
ADP was converted to ATP by adding 20 µL of kinase detection reagent, and luciferase and luciferin were introduced to detect ATP. The reaction plate was centrifuged at 1000 rpm for 1 minute. After sealing the plate with aluminum foil, the reaction was carried out at room temperature for 60 minutes.
The ADP-GLO luminescence signal values were read by the microplate reader PHERAstar, and the readings were analyzed.

As for `Cc1nc2c(cc1C(F)(F)F)c(C(N)=O)c(N)n2-c1c(C)c(O)cc(F)c1C` [Example 120, 2-amino-1-(3-fluoro-5-hydroxy-2,6-dimethylphenyl)-6-methyl-5-(trifluoromethyl)-1H-pyrrolo[2,3-b]pyridine-3-carboxamide], the IC50 in test [1] (Homo sapiens, 120 h) is 14 nM; in test [2], 9.09 nM.

On to `CCc1cc2c(C(N)=O)c(N)n(-c3c(C)c(O)cc(F)c3C)c2nc1C` (atropisomer, axis not shown) [Example 132], for which the 50% inhibitory concentration (IC50) in test [1] was 30 nM; in test [2], 8.92 nM.

`C#Cc1cnc2c(c1)c(C(N)=O)c(N)n2-c1c(C)c(O)cc(F)c1C` [Example 101]: the IC50 in test [1] (Homo sapiens, HCC1569, 120 h) amounted to 94 nM; in test [2], 6.8 nM.

As to `Cc1cc(F)c(O)c(C)c1-n1c(N)c(C(N)=O)c2cc(C3CC3)c(C)nc21` (single isomer, unassigned) [Example 141.1], the IC50 in test [1] (Homo sapiens, HCC1569, 120 h) worked out at 61 nM; in test [2] it was 2.56 nM.

Take `Cc1cc(F)c(O)c(C)c1-n1c(N)c(C(N)=O)c2cc(C3CC3)c(C)nc21` (atropisomer, axis not shown) [Example 141]: the IC50 in test [1] (Homo sapiens, HCC1569, 120 h) came out at 76 nM; in test [2] it was 5.8 nM.

With `Cc1c(O)cc(F)c(C)c1-n1c(N)c(C(N)=O)c2cc(C(C)C)cnc21` (atropisomer, axis not shown) [Example 113.2], the IC50 in test [1] (Homo sapiens, HCC1569, 120 h) worked out at 3 nM; in test [2], 4.1 nM.

Turning to `Cc1nc2c(cc1-c1cnn(C)c1)c(C(N)=O)c(N)n2-c1c(C)c(O)cc(F)c1C` [Example 128], the IC50 in test [1] (Homo sapiens, HCC1569, 120 h) was 69 nM; in test [2] it was 16.9 nM.

Regarding `C=C(C)c1cnc2c(c1)c(C(N)=O)c(N)n2-c1c(C)c(O)cc(F)c1C` (atropisomer, axis not shown) [Example 133], the half-maximal inhibitory concentration (IC50) in test [1] (Homo sapiens, HCC1569, 120 h) was found to be 18 nM; in test [2], 6.62 nM.

For `Cc1cc(F)c(O)c(C)c1-n1c(N)c(C(N)=O)c2cc(N3CCC3)c(C)nc21` (atropisomer, axis not shown) [Example 173.2], the IC50 in test [1] (Homo sapiens, HCC1569, 120 h) is 65 nM; in test [2] it was 4.5 nM.

As to `Cc1cc2c(C(N)=O)c(N)n(-c3c(C)c(O)cc(F)c3C)c2nc1C` [Example 20, 2-amino-1-(3-fluoro-5-hydroxy-2,6-dimethylphenyl)-5,6-dimethyl-1H-pyrrolo[2,3-b]pyridine-3-carboxamide], the 50% inhibitory concentration (IC50) came out at 40 nM in test [1] (Homo sapiens, HCC1569, 120 h) and 15.3 nM in test [2].

Take `Cc1nc2c(cc1-c1cccnc1)c(C(N)=O)c(N)n2-c1c(C)c(O)cc(F)c1C` [Example 131]: the concentration for half-maximal inhibition (IC50) in test [1] (Homo sapiens, HCC1569, 120 h) came out at 23 nM; in test [2], 11.2 nM.

For the compound `Cc1nc2c(cc1-c1ncco1)c(C(N)=O)c(N)n2-c1c(C)c(O)cc(F)c1C` [Example 121], the IC50 was 21 nM in test [1] (Homo sapiens, HCC1569, 120 h) and 5.11 nM in test [2].

In the case of `Cc1cc(F)c(O)c(C)c1-n1c(N)c(C(N)=O)c2cc(C(C)C)c(C)nc21` (atropisomer, axis not shown) [Example 159.1], the IC50 in test [1] (Homo sapiens, HCC1569, 120 h) came to 31 nM; in test [2], 4.42 nM.

Regarding `Cc1nc(C2CC2)c2c(C(N)=O)c(N)n(-c3c(C)ccc(O)c3C)c2n1` (atropisomer, axis not shown) [Example 62.2], the half-maximal inhibitory concentration (IC50) in test [1] (Homo sapiens, HCC1569, 120 h) is 60 nM; in test [2], 14.4 nM.

In the case of `C=Cc1cc2c(C(N)=O)c(N)n(-c3c(C)cc(F)c(O)c3C)c2nc1C` (atropisomer, axis not shown) [Example 142], the 50% inhibitory concentration (IC50) in test [1] (Homo sapiens, HCC1569, 120 h) is 88 nM; in test [2], 20.7 nM.

Regarding `C=Cc1nc2c(cc1C)c(C(N)=O)c(N)n2-c1c(C)c(O)cc(F)c1C` [Example 122], the IC50 in test [1] (Homo sapiens, HCC1569, 120 h) amounted to 28 nM; in test [2], 8.71 nM.

Regarding `Cc1c(O)cc(F)c(C)c1-n1c(N)c(C(N)=O)c2cc(-c3ccnn3C)cnc21` (racemic) [Example 118], the concentration for half-maximal inhibition (IC50) was 65 nM in test [1] (Homo sapiens, HCC1569, 120 h) and 4.1 nM in test [2].

Take `Cc1c(O)cc(F)c(C)c1-n1c(N)c(C(N)=O)c2cc(C3CC3)cnc21` [Example 80]: the IC50 worked out at 16 nM in test [1] (Homo sapiens, HCC1569, 120 h) and 3.51 nM in test [2].

For the compound `Cc1cc(F)c(O)c(C)c1-n1c(N)c(C(N)=O)c2cc(Br)c(C)nc21` [Example 58, 2-Amino-5-bromo-1-(4-fluoro-3-hydroxy-2,6-dimethylphenyl)-6-methyl-1H-pyrrolo[2,3-b]pyridine-3-carboxamide], the IC50 in test [1] (Homo sapiens, 120 h) worked out at 70 nM; in test [2], 3.57 nM.

Take `Cc1nc2c(cc1Br)c(C(N)=O)c(N)n2-c1c(C)c(O)cc(F)c1C` (racemic) [Example 104]: the half-inhibitory concentration (IC50) in test [1] (Homo sapiens, HCC1569, 120 h) worked out at 15 nM; in test [2], 3.21 nM.

As to `Cc1cc2c(C(N)=O)c(N)n(-c3c(C)c(O)cc(F)c3C)c2nc1C` (atropisomer, axis not shown) [Example 21], the 50% inhibitory concentration (IC50) in test [1] came to 20 nM; in test [2], 4.13 nM.

Consider `Cc1c(O)cc(F)c(C)c1-n1c(N)c(C(N)=O)c2cc(Br)cnc21` [Example 99], for which the IC50 in test [1] (Homo sapiens, HCC1569, 120 h) was found to be 40 nM; in test [2], 9.68 nM.

Consider `Cc1nc2c(cc1C1=CCCC1)c(C(N)=O)c(N)n2-c1c(C)c(O)cc(F)c1C` [Example 116], for which the half-maximal inhibitory concentration (IC50) in test [1] (Homo sapiens, HCC1569, 120 h) worked out at 28 nM; in test [2] it was 25.9 nM.

Take `[2H]C([2H])([2H])c1cc(F)c(O)c(C([2H])([2H])[2H])c1-n1c(N)c(C(N)=O)c2cc(C(F)(F)F)c(C)nc21` [Example 193]: the half-inhibitory concentration (IC50) in test [2] stood at 7.94 nM.

Turning to `Cc1cc(F)c(O)c(C)c1-n1c(N)c(C(N)=O)c2cc(C3CC3)cnc21` (atropisomer, axis not shown) [Example 144], in test [2], the IC50 amounted to 5.74 nM.

For `Cc1cc2c(cn1)c(C(N)=O)c(N)n2-c1c(C)ccc(O)c1C` [Example 31, 2-Amino-1-(3-hydroxy-2,6-dimethylphenyl)-6-methyl-1H-pyrrolo[3,2-c]pyridine-3-carboxamide], the 50% inhibitory concentration (IC50) in test [2] stood at 11.1 nM.

As to `Cc1ccc(O)c(C)c1-n1c(N)c(C(N)=O)c2c3cnccc3c(C)cc21` (racemic) [Example 189, 8-amino-7-(3-hydroxy-2,6-dimethylphenyl)-S-methyl-7H-pyrrolo[2,3-h]isoquinoline-9-carboxamide], the 50% inhibitory concentration (IC50) in test [2] was 5 nM.

For `Cc1c(O)cc(F)c(C)c1-n1c(N)c(C(N)=O)c2cc(C(C)C)cnc21` (atropisomer, axis not shown) [Example 113.1], in test [2], the 50% inhibitory concentration (IC50) worked out at 93.1 nM.

On to `C=Cc1ncc2c(C(N)=O)c(N)n(-c3c(C)ccc(O)c3C)c2n1` [Example 6, 6-Amino-7-(3-hydroxy-2,6-dimethylphenyl)-2-vinyl-7H-pyrrolo[2,3-d]pyrimidine-5-carboxamide], for which the IC50 in test [2] came to 10.1 nM.

In the case of `Cc1cc(F)c(O)c(C)c1-n1c(N)c(C(N)=O)c2c3c(cnc21)CCC3` (atropisomer, axis not shown) [Example 186.2], in test [2], the concentration for half-maximal inhibition (IC50) stood at 3.91 nM.

As for `CCCc1ncc2c(C(N)=O)c(N)n(-c3c(C)ccc(O)c3C)c2n1` [Example 87], the IC50 in test [2] turned out to be 3.35 nM.

In the case of `C/C=C/c1ncc2c(C(N)=O)c(N)n(-c3c(C)ccc(O)c3C)c2n1` [Example 79], the IC50 in test [2] came to 4.74 nM.

On to `Cc1cc(F)c(O)c(C)c1-n1c(N)c(C(N)=O)c2cc3c(nc21)CCO3` [Example 184], for which the concentration for half-maximal inhibition (IC50) in test [2] came out at 88.8 nM.

Take `Cc1nc(C)c2c(C(N)=O)c(N)n(-c3c(C)ccc(O)c3C)c2n1` [Example 19, 6-Amino-7-(3-hydroxy-2,6-dimethylphenyl)-2,4-dimethyl-7H-pyrrolo[2,3-d]pyrimidine-5-carboxamide]: the IC50 in test [2] was 4.5 nM.

Regarding `Cc1cc(F)c(O)c(C)c1-n1c(N)c(C(N)=O)c2cc3c(nc21)CCC3` [Example 183], in test [2], the IC50 worked out at 33.8 nM.
